In US20090247576A1, “ANTI-TUMOR AGENT FOR MULTIPLE MYELOMA” (Eisai R & D Management Co., Ltd., priority 2005, published 2009):

Molecular target: T1, FGFR3 kinase (human recombinant GST fusion protein) (Homo sapiens, UniProt P22607)
T1 construct: GST; host or cells: Sf9 insect cells, baculovirus
Assay: FGFR3 cell free kinase assay (33P-ATP incorporation, FlashPlate, ProQinase)
Assay type: biochemical
Details: test substance: methanesulfonate; 1 μM [γ-33P]-ATP; substrate biotinylated Poly(Glu, Tyr)4:1; 30° C., 80 minutes; 10 points from 10 μM to 0.0003 μM; read-out: FGFR3 kinase-inhibiting activity (IC50)
Procedure: A FGFR3-inhibiting activity of 4-(3-chloro-4-(cyclopropylaminocarbonyl)aminophenoxy)-7-methoxy-6-quinolinecarbox amide was examined by ProQinase (Freiburg, GmbH) on our request. Specifically, the FGFR3-inhibiting activity was determined as follows. FGFR3 kinase was expressed in an insect cell (Spondoptea frugiperda 9 (Sf9)) as human recombinant GST fusion protein by the method of Baculovirus Expression System. The expressed recombinant protein was purified by affinity chromatography using GSH-agarose (from Sigma) or Ni-NTH-agarose (from Qiagen). The purity and identification of the protein were confirmed by SDS-PAGE, silver staining and western blotting using an antibody specific to FGFR3 kinase. Kinase assay was carried out as follows. […] The amount of ^33Pi incorporation was assessed by determining the radioactivity on the plate with a microplate scintillation counter (from Microbeta, Wallac). […] The kinase activity in the presence of the test substance at each concentration was assessed as percentage of the value obtained by subtracting the 0% value from the radioactivity value to the value obtained by subtracting the 0% value from the 100% value.

T1 sequence (P22607 23-806): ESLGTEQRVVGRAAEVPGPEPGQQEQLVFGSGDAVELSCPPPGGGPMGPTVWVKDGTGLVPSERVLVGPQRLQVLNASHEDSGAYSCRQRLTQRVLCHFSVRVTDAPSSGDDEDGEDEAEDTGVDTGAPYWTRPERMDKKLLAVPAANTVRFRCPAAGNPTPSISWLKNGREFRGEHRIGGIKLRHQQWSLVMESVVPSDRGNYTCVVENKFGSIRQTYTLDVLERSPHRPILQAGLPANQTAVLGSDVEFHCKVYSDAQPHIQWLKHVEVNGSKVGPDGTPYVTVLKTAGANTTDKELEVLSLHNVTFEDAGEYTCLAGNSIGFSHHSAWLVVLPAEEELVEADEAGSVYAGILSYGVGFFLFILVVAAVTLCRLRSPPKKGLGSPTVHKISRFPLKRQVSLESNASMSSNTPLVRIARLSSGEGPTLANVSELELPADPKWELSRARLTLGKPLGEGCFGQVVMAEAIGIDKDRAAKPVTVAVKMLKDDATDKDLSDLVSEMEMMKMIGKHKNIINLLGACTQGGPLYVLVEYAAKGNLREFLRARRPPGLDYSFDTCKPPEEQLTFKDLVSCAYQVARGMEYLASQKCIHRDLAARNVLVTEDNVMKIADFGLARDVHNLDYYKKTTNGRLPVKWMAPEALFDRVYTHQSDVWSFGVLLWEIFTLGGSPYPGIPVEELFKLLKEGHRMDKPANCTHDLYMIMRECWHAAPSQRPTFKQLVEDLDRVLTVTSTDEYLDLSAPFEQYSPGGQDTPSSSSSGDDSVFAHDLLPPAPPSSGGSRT

COc1cc2nccc(Oc3ccc(NC(=O)NC4CC4)c(Cl)c3)c2cc1C(N)=O [4-(3-chloro-4-(cyclopropylaminocarbonyl)aminophenoxy)-7-methoxy-6-quinolinecarbox amide]
IC50: 140 nM
